Test results: ChEMBL document CHEMBL4813953, “Kinetics-Driven Drug Design Strategy for Next-Generation Acetylcholinesterase Inhibitors to Clinical Candidate” (J Med Chem, 2021)
Calls of active or inactive are those of the source. The calls are words filed in the database; no cut-off is given here.

Key:
[1] = Cardiotoxicity in Beagle dog assessed as effect on QT interval at 0.1 to 1 mg/kg; type: toxicity, organism-based, Canis lupus familiaris; conditions: in vivo, dose 0.1-1 mg/kg
[2] = Oral bioavailability in Sprague-Dawley rat at 0.5 mg/kg; type: ADME, organism-based; conditions: in vivo
Mus musculus [3] = assay: Cognitive enhancing effect in mouse model of scopolamine-induced memory impairment assessed as reduction in escape latency time at 0.5 to 2 mg/kg, IG QD for 3 days by channel water maze test; type: functional, organism-based; conditions: dose 0.5-2 mg/kg, time 3.0 day
[4] = Volume of distribution at steady state in Beagle dog at 0.5 mg/kg, po or iv; type: ADME, organism-based, Canis lupus familiaris; conditions: in vivo, read-out: Vdss
[5] = Tmax in human plasma at 2 mg, po; type: ADME, cell-free
[6] = Terminal half life in human plasma at 4 mg, po; type: ADME, cell-free; conditions: read-out: beta t1/2 (converted)
[7] = AUC (0 to infinity) in Beagle dog at 0.25 mg/kg, po; type: ADME, organism-based, Canis lupus familiaris; set-up: route oral, time infinity, dose 0.25 mg/kg; conditions: in vivo
[8] = MRT in Sprague-Dawley rat plasma at 10 mg/kg, po; type: ADME, organism-based
[9] = Tmax in human plasma at 1 mg, po; type: ADME, cell-free
[10] = Genotoxicity in Salmonella typhimurium TA102 by Ames test; type: toxicity; conditions: salmonella enterica subsp. enterica serovar typhimurium
[11] = Tmax in human plasma at 8 mg, po; type: ADME, cell-free
[12] = Protein binding in dog plasma; type: ADME, cell-free, Canis lupus familiaris; conditions: read-out: PPB (converted)
[13] = Tmax in Beagle dog at 0.25 mg/kg, po; type: ADME, organism-based, Canis lupus familiaris; conditions: in vivo
Cytochrome P450 1A2 = target: T1, Cytochrome P450 1A2 (Homo sapiens, UniProt P05177); assay: Inhibition of CYP1A2 in human hepatocytes; type: ADME, cell-based, Hepatocyte
T1 sequence (P05177 whole entry): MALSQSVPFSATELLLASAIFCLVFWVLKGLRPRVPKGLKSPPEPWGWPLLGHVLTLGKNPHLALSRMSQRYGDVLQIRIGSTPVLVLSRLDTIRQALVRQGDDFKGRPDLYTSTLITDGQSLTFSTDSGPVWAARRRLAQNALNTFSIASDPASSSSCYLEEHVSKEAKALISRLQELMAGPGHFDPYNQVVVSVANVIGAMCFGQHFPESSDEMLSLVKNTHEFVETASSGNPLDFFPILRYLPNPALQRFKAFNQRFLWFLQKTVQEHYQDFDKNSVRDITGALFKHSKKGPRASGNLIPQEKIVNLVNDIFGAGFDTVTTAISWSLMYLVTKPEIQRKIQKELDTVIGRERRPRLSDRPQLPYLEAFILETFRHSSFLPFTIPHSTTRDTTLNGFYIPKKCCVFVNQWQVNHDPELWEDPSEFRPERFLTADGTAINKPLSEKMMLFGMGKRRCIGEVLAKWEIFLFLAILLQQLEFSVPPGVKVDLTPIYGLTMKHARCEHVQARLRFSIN

[14] = Genotoxicity in Salmonella typhimurium TA97 by Ames test; type: toxicity; conditions: salmonella enterica subsp. enterica serovar typhimurium
[15] = Terminal half life in human plasma at 12 mg, po; type: ADME, cell-free; conditions: read-out: beta t1/2 (converted)
Mus musculus [16] = assay: Improvement in learning and spatial memory in APP/PS1 double mutant-transgenic mouse model assessed as increase in number of platform crossings at 0.5 to 1 mg/kg, po for 3 months measured during probe trial by Morris water maze test; type: functional, organism-based; conditions: dose 0.5-1 mg/kg
Mus musculus [17] = assay: Cognitive enhancing effect in ig dosed APP/PS1 double mutant-transgenic mouse model assessed as increase in spontaneous alteration administered once daily by Y-maze test; type: functional, organism-based; conditions: dose 0.25-1 mg/kg
[18] = AUC (0 to infinity) in Sprague-Dawley rat at 0.5 mg/kg, iv; type: ADME, organism-based; set-up: time infinity, route intravenous, dose 0.5 mg/kg; conditions: in vivo
Rattus norvegicus = organism: Rattus norvegicus; assay: Selectivity index, ratio of IC50 for rat serum BuChE using S-butyrylthiocholine iodide as substrate to IC50 for rat cortex homogenate acetylcholinesterase using acetylthiocholine iodide as substrate
Cytochrome P450 2C19 = Cytochrome P450 2C19 (Homo sapiens, UniProt P33261); assay: Inhibition of CYP2C19 in human hepatocytes; type: ADME, cell-based, Hepatocyte
Cytochrome P450 2C19, sequence (P33261 whole entry): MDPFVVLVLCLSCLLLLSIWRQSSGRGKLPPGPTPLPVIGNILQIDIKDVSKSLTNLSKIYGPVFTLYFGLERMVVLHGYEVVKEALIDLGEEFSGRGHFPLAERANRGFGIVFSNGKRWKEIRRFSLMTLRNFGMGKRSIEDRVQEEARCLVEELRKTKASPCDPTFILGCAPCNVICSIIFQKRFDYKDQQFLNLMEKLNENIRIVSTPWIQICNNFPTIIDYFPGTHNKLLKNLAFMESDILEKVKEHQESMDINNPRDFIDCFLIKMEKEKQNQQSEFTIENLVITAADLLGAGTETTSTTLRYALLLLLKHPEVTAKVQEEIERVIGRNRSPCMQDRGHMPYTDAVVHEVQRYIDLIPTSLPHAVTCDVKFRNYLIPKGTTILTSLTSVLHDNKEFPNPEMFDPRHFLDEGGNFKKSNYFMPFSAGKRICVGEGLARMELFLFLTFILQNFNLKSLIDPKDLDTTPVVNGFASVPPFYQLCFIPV

[19] = Tmax in Sprague-Dawley rat at 0.5 mg/kg, po; type: ADME, organism-based; conditions: in vivo
Cytochrome P450 2C9 = Cytochrome P450 2C9 (Homo sapiens, UniProt P11712); assay: Inhibition of CYP2C9 in human hepatocytes; type: ADME, cell-based, Hepatocyte
Cytochrome P450 2C9, sequence (P11712 whole entry): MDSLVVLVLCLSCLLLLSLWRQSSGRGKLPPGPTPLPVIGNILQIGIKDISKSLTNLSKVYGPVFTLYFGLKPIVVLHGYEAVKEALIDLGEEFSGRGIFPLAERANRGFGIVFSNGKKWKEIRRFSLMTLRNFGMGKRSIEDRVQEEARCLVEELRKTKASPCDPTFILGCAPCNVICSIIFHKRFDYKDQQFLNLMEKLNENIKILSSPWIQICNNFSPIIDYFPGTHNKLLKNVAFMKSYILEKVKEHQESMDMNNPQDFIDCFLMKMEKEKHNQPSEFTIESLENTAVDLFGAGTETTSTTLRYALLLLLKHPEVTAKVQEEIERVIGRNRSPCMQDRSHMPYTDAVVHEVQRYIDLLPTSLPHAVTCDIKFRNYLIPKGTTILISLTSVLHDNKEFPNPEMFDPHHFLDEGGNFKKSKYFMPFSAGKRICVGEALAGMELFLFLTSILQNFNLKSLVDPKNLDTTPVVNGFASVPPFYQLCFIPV

[20] = Efflux ratio of apparent permeability across basolateral to apical side over apical to basolateral side in human Caco-2 cells; type: ADME, cell-based
[21] = Cmax in human plasma at 1 mg, po; type: ADME, cell-free; set-up: route oral, dose 1 mg
[22] = Cmax in Sprague-Dawley rat at 0.5 mg/kg, po; type: ADME, organism-based; set-up: route oral, dose 0.5 mg/kg; conditions: in vivo
[23] = Cmax in Beagle dog at 0.25 mg/kg, po; type: ADME, organism-based, Canis lupus familiaris; set-up: route oral, dose 0.25 mg/kg; conditions: in vivo
[24] = Tmax in human plasma at 4 mg, po; type: ADME, cell-free
[25] = Genotoxicity in Salmonella typhimurium TA1535 by Ames test; type: toxicity; conditions: salmonella enterica subsp. enterica serovar typhimurium
[26] = AUC(0 to infinity) in Sprague-Dawley rat brain at 10 mg/kg, po; type: ADME, organism-based; set-up: route oral, time infinity, dose 10 mg/kg
[27] = Mutagenecity against CHL cells; type: ADME, cell-based, Cricetulus griseus; conditions: chinese hamster
[28] = target: T2, Acetylcholinesterase (Mus musculus) (UniProt P21836); assay: Ex vivo inhibition of AChE in ICR mouse cortex homogenate at 2 mg/kg, ig using acetylthiocholine iodide as substrate measured after 30 to 240 mins by DTNB reagent based assay; type: functional, organism-based; conditions: time 30-240 min
T2 sequence (whole entry): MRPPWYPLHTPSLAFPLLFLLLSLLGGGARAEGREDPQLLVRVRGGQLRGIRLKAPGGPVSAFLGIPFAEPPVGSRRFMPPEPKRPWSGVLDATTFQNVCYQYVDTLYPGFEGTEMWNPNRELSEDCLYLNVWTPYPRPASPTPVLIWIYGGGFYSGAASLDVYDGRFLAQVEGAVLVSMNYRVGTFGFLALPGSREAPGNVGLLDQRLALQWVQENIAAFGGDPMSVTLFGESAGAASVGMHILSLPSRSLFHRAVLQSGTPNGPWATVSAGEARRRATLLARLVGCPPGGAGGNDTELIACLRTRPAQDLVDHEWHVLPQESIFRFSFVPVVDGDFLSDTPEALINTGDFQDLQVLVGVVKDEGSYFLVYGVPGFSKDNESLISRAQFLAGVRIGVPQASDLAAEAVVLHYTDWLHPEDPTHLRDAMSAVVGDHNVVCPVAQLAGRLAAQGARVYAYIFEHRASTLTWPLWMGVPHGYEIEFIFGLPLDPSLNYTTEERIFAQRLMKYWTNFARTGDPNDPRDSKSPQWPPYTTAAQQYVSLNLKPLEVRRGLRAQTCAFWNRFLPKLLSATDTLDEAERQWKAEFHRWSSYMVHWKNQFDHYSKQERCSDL

[29] = Clearance in Sprague-Dawley rat at 0.5 mg/kg, iv; type: ADME, organism-based; conditions: in vivo
[30] = AUC (0 to infinity) in Beagle dog at 0.25 mg/kg, iv; type: ADME, organism-based, Canis lupus familiaris; set-up: route intravenous, time infinity, dose 0.25 mg/kg; conditions: in vivo
[31] = Toxicity in Sprague-Dawley rat assessed as animal death at upto 30 mg/kg, po for 4 weeks; type: organism-based; conditions: in vivo, 672 h
Cytochrome P450 2D6 = Cytochrome P450 2D6 (Homo sapiens, UniProt P10635); assay: Inhibition of CYP2D6 in human hepatocytes; type: ADME, cell-based, Hepatocyte
Cytochrome P450 2D6, sequence (P10635 whole entry): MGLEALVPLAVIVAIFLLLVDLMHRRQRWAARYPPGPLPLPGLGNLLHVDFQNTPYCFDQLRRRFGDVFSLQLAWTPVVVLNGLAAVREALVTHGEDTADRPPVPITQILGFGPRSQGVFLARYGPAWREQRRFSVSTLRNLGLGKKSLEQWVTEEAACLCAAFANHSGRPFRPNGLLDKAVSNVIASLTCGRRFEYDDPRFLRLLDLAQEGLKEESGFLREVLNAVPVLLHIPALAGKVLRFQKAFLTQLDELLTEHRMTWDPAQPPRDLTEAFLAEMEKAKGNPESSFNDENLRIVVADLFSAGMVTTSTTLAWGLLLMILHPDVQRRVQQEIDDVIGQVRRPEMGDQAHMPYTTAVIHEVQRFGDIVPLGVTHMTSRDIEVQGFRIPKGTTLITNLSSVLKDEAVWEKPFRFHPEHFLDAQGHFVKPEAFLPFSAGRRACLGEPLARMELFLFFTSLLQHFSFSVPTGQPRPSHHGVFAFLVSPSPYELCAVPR

[32] = Genotoxicity in Salmonella typhimurium TA98 by Ames test; type: toxicity; conditions: salmonella enterica subsp. enterica serovar typhimurium

Question: For `COc1cc2c(cc1OC)C(=O)C(CC1(F)CCN(Cc3ccccc3F)CC1)C2` (configuration not stated), which Activity [1] is on record?
Answer: Non-Toxic

Question: What about the bioavailability [2] of the same compound?
Answer: 45.3%

Question: And the Activity (Mus musculus [3])?
Answer: Active

Question: What about the Vd [4] of the same compound?
Answer: 23.2 L/kg

Question: And the Tmax [5]?
Answer: 1.5 h

Question: What about the half-life [6] of the same compound?
Answer: 1850 min

Question: What about the AUC(0-inf) [7] of the same compound?
Answer: 157 ng·h/mL

Question: What about the MRT [8] of the same compound?
Answer: 6.81 h

Question: What about the Tmax [9] of the same compound?
Answer: 1.5 h

Question: And the Activity [10]?
Answer: Non-Toxic

Question: What about the Tmax [11] of the same compound?
Answer: 1.13 h

Question: And the fraction unbound [12]?
Answer: 0.035

Question: What about the Tmax [13] of the same compound?
Answer: 55.2 min

Question: And the IC50 (Cytochrome P450 1A2)?
Answer: > 30 µM

Question: And the Activity [14]?
Answer: Non-Toxic

Question: And the half-life [15]?
Answer: 1930 min

Question: And the Activity (Mus musculus [16])?
Answer: Active

Question: And the Activity (Mus musculus [17])?
Answer: Active

Question: What about the AUC(0-inf) [18] of the same compound?
Answer: 395 ng·h/mL

Question: What about the Ratio IC50 (Rattus norvegicus) of the same compound?
Answer: 36900

Question: And the IC50 (Cytochrome P450 2C19)?
Answer: > 30 µM

Question: What about the Tmax [19] of the same compound?
Answer: 37.8 min

Question: And the IC50 (Cytochrome P450 2C9)?
Answer: 4.77 µM

Question: And the efflux ratio [20]?
Answer: 0.67

Question: What about the Cmax [21] of the same compound?
Answer: 1.19 ng/mL

Question: And the Cmax [22]?
Answer: 35.7 ng/mL

Question: What about the Cmax [23] of the same compound?
Answer: 16.9 ng/mL

Question: And the Tmax [24]?
Answer: 45 min

Question: And the Activity [25]?
Answer: Non-Toxic

Question: What about the AUC(0-inf) [26] of the same compound?
Answer: 6430 ng·h/mL

Question: What about the Activity [27] of the same compound?
Answer: Non-Toxic

Question: And the inhibition [28]?
Answer: Active

Question: And the clearance [29]?
Answer: 23.7 mL/min/kg

Question: What about the AUC(0-inf) [30] of the same compound?
Answer: 256 ng·h/mL

Question: And the Activity [31]?
Answer: Non-Toxic

Question: And the IC50 (Cytochrome P450 2D6)?
Answer: > 30 µM

Question: And the Activity [32]?
Answer: Non-Toxic
